Read-outs that look alike come from different tables or passages of the source.
Experiments:
[1] = biological target: LmajFGSK-3 (LmajGSK-3 short Y102F mutant) (Leishmania major, UniProt Q4QE15, Y102F); test: biochemical; assay type: biochemical, L. major
HsGSK-3β = HsGSK-3β (Homo sapiens, UniProt P49841); test: Kinase-Glo assay, inhibition of human GSK-3β; assay type: biochemical; details: read-out: Mean IC50 (SD), HsGSK-3b; 3.2 μM BioGSP-2, 2 μM ATP, 90 minutes at 30°C
TbruGSK-3 short = TbruGSK-3 short (Trypanosoma brucei brucei, UniProt Q388M1); test: biochemical; assay type: biochemical, T. brucei
LinfGSK-3 short = LinfGSK-3 short (Leishmania infantum, UniProt A4HXQ3); test: biochemical; assay type: biochemical, L. infantum; details: for mode of inhibition of LinfGSK-3 short (velocity at different ATP concentrations): Fig. 3A
[2] = biological target: LmajEGSK-3 (LmajGSK-3 short D105E mutant) (Leishmania major, UniProt Q4QE15, D105E); test: biochemical; assay type: biochemical, L. major
[3] = biological target: LmajEFGSK-3 (LmajGSK-3 short Y102F and D105E double mutant) (Leishmania major, UniProt Q4QE15, D105E/Y102F); test: biochemical; design: species or system L. major
LmajGSK-3 short = LmajGSK-3 short (Leishmania major, UniProt Q4QE15); test: biochemical; design: species or system L. major
[4] = read-out: Mean IC50 (SD), LmajFGSK-3, Y102F mutant, 8.2 nM enzyme, 3.2 μM BioGSP-2, 2 μM ATP, 90 minutes at 30°C

Sequence of HsGSK-3β (P49841 whole entry): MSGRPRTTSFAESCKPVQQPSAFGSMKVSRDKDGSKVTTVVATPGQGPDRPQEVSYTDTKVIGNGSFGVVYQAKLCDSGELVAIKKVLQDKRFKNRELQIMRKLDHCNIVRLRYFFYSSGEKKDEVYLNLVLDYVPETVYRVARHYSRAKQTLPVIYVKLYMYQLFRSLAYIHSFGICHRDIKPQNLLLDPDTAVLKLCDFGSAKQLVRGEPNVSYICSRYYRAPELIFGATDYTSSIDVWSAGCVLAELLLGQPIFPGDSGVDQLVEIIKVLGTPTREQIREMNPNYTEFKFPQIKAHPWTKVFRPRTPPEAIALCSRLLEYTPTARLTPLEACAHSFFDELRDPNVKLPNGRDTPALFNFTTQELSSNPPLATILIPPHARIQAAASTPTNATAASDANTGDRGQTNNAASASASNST

Compound: O=C1Nc2ccc(S(=O)(=O)O)cc2C1=C1Nc2ccccc2C1=NO [Indirubin-3'-monoxime-5-sulphonic Acid]
- IC50 [1, 4]: 0.93 µM
- IC50 (HsGSK-3β): 0.06 µM

Compound: O=C1Nc2ccc3ncsc3c2/C1=C/Nc1ccc(S(=O)(=O)Nc2ccccn2)cc1 [GW8510]
- IC50 (TbruGSK-3 short; read-out: IC50 value for TbruGSK-3 short): 0.021 µM
- IC50 ([1]; read-out: IC50 value for the LmajGSK-3 short Y102F mutant): 0.093 µM
- IC50 [1, 4]: 0.09 µM
- mode of inhibition of LinfGSK-3 short (velocity at different ATP concentrations) (LinfGSK-3 short): ATP competitive
- IC50 (LinfGSK-3 short; read-out: IC50 value for LinfGSK-3 short): 0.628 µM
- IC50 (HsGSK-3β): 0.02 µM
- effect of mutation D105E of LmajGSK-3 short on sensitivity to inhibition ([2]; relative to wild type LmajGSK-3 short): ~2 fold

Compound: O=C1Nc2ccccc2/C1=C/c1cnc[nH]1 [Angio-genesis inhibitor]
- IC50 [1, 4]: 8.47 µM
- IC50 (HsGSK-3β): 1.62 µM

Compound: N#CCCc1ccc2c(c1)-c1[nH]c3ccc([N+](=O)[O-])cc3c1CC(=O)N2 [Alster-paullone, 2-cyanoethyl]
- IC50 [1, 4]: 0.31 µM
- IC50 (HsGSK-3β): 0.02 µM

Compound: NC1=NC(=O)/C(=C2\CCNC(=O)c3[nH]c(Br)cc32)N1 [Hymeni-aldisine, Stylissa dami-cornis, Hymenialdisine]
- IC50 [3]: 9.25 µM
- IC50 (TbruGSK-3 short): 3.95 µM
- IC50 (LmajGSK-3 short): 13.1 µM
- IC50 [1]: 16.1 µM
- IC50 (LinfGSK-3 short): 18.2 µM
- IC50 [2]: 10.4 µM

Compound: COc1ccc(CNC(=O)Nc2ncc([N+](=O)[O-])s2)cc1 [GSK-3β Inhibitor VIII]
- Mean IC50 (SD), LmajGSK-3 (LmajGSK-3 short; 8.2 nM enzyme, 3.2 μM BioGSP-2, 2 μM ATP, 90 minutes at 30°C): no activity
- Mean IC50 (SD), LmajFGSK-3 ([1]; Y102F mutant, 8.2 nM enzyme, 3.2 μM BioGSP-2, 2 μM ATP, 90 minutes at 30°C): no activity
- Mean IC50 (SD), LinfGSK-3 (LinfGSK-3 short; 2.8 nM enzyme, 3.2 μM BioGSP-2, 2 μM ATP, 90 minutes at 30°C): no activity
- Mean IC50 (SD), LmajEGSK-3 ([2]; D105E mutant, 8.2 nM enzyme, 3.2 μM BioGSP-2, 2 μM ATP, 90 minutes at 30°C): no activity

Compound: Cn1cc(C2=C(c3cn(CCCN)c4ccccc34)C(=O)NC2=O)c2ccccc21 [Ro-31-7549]
- IC50 [1, 4]: 1.08 µM
- IC50 (HsGSK-3β): 0.004 µM

Compound: Cdk1/2 Inhibitor III
- IC50 [1, 4]: 0.15 µM
- mode of inhibition of LinfGSK-3 short (velocity at different ATP concentrations) (LinfGSK-3 short): ATP competitive
- IC50 (HsGSK-3β): 0.21 µM

Compound: COc1ccc2c(c1)/C(=C/c1cnc[nH]1)C(=O)N2 [SU9516]
- IC50 [3]: 1.29 µM
- IC50 (TbruGSK-3 short): 0.59 µM
- IC50 (LmajGSK-3 short): 3.04 µM
- IC50 [1]: 1.4 µM
- IC50 (LinfGSK-3 short): 1.87 µM
- IC50 [2]: 3.15 µM

— PMC3045540 (Molecular and biochemical parasitology, 2010)
